Measurements: patent US7892767B2, “Phosphospecific chemokine receptor antibodies” (Washington University in St. Louis, priority 2005, dated 2011)

Tests used:
[1] = system: PDE4A-expressing U87 cells; assay: Viable cell number, PDE4A-expressing U87 cells; format: cell-based, human; details: CXCL12 1 μg/ml, AMD 3465 2.5 μg/ml, Rolipram 200 μM
Protocol: (§1) PDE4A expression. U87 and Daoy cells (15,000 cells) were transiently transfected for 48 h with a plasmid encoding a transgene for the tet-off transactivator (tTA) alone (kind gift from Dr. Louis Muglia, Washington University School of Medicine, St. Louis, Mo.), a plasmid containing a transgene for tet-off regulated expression of phosphodiesterase 4A (PDE4A) alone (kind gift from Dr. James Cherry, Boston University, Boston, Mass.), or a combination of both plasmids, using lipofectamine (Invitrogen) according to the manufacturer's instructions. Plasmid DNA (2 μg) was mixed with lipofectamine (5 μl) per 35 mm^2 dish. Transfection proceeded for 9 hours prior to exchanging transfection media for αMEM supplemented with 10% FCS.

[2] = system: PDE4A-expressing Daoy cells; assay: Viable cell number, PDE4A-expressing Daoy cells; format: cell-based, human; details: CXCL12 1 μg/ml, AMD 3465 2.5 μg/ml, Rolipram 200 μM
Protocol: as §1

[3] = system: Daoy medulloblastoma cells; assay: Intracellular cAMP by ELISA, Daoy medulloblastoma cells; format: cell-based, human; details: 1 μg/ml CXCL12
Protocol: (§2) Growth factor and drug treatment. Following serum-starvation for 24 hours, astrocytes, granule cells, U87 cells and Daoy cells, were treated with 1 μg/ml CXCL12 (PeproTech), […] AMD3465 (kind gift from Simon Fricker, AnorMED, Langley, BC, Canada) (200 μM Rolipram (Sigma), or 10 μM Forskolin (Sigma) as indicated.
cAMP measurement in cell culture. cAMP concentration was measured using a Correlated-EIA™. Enzyme Immunoassay Kit (Assay Designs Inc. MI) according to the manufacturer's instructions. Briefly, U87 or Daoy cells were serum-starved for 24 hours, and treated with CXCL12 (1 μg/ml), Rolipram (200 μM), or forskolin (10 μM). Cells were lysed in 0.1M HCL and particulate matter was removed by centrifugation at >600×g for 10 min. The supernatants were dried down and resuspended in assay buffer.
Determination of cAMP concentration. Competitive immunoassay for cAMP concentration was performed exactly as directed by the manufacturer. Absorbance at 405 nm was measured and cAMP concentrations were determined by calculation based on a standard curve. Protein concentrations were measured by colormetric assay (Bio-Rad, Hercules, Calif.) according to the manufacturer's directions. cAMP values were normalized to protein for each sample individually.

[4] = system: GPCs; assay: Cell number by trypan blue exclusion, primary GPCs; format: cell-based, mouse; details: CXCL12 1 μg/ml, 24 hours
Protocol: Primary granule neuron cultures. Primary cultures of purified GPCs were prepared from 6 day-old BALB/C mice as described (58). Cerebella were dissected and meninges were removed. After incubation with 0.1% trypsin (Sigma) in HBSS with 125 units/ml Dnase (Sigma), 0.5 mM EDTA for 20 minutes at 37° C., cells were pelleted and washed three times with HBSS. The final cell suspension was passed through a […] nylon mesh cell strainer (Falcon, Franklin Lakes, Mich.). Cells were diluted to 2×10^6 cells/ml in DMEM/F12 (Gibco BRL, Gaithersburg, Md.) supplemented with N2 (Gibco BRL), 20 mM KCl, and 36 mM glucose.
as §2

[5] = target: T1, CXCR4 (Mus musculus, UniProt P70658); assay: CXCL12-induced CXCR4 phosphorylation (pCXCR4 western blot), wild-type (Nf1+/+) astrocytes; format: cell-based; details: CXCL12 0.1 μg/ml, at 5 minutes
T1 construct: endogenous in cells; host or cells: primary mouse astrocytes (Nf1 flox/flox, infected with Ad-LacZ or Ad-Cre)
T1 sequence (P70658 whole entry): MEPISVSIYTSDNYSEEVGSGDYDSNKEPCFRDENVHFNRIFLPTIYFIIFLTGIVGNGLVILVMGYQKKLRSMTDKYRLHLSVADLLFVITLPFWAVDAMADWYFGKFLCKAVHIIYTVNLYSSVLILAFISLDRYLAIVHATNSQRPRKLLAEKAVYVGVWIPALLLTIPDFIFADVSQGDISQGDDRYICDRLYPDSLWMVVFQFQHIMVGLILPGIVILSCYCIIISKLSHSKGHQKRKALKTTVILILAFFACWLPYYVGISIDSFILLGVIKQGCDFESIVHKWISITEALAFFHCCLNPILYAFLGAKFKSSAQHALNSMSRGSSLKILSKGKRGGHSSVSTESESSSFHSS
Protocol: Western Blot Analysis. Whole-cell extracts were obtained by lysing cells with lysis buffer (20 mM Tris pH 7.4, 137 mM NaCl, 10% Glycerol and 1% Triton-X-100) supplemented with phosphatase inhibitor cocktail set II (Calbiochem, La Jolla, Calif.), PMSF (1 mM), leupeptin, (0.005 mg/ml) and aprotinin (0.005 mg/ml). The proteins were resolved with 10% Bis-Tris gels (Invitrogen) and transferred onto the nitrocellulose membrane Hybond ECL (Amersham, Piscataway, N.J.) according to standard protocols. Membranes were incubated with polyclonal antibodies CXCR4 (1:500), pErk½ (1:1200), pan Erk½ (1:150), pAkt (1:500), pan Akt (1:1000), pGRK2 (1:250), and pCXCR4 (1:200) overnight at 4° C. This was followed by incubation with horseradish peroxidase-conjugated secondary antibody (1:15,000; Bio-Rad). Peroxide activity was detected using the enhanced chemiluminescence Supersignal West Dura system (Pierce, Rockford, Ill.) Mouse anti-actin antibody was used as a loading control. Quantitation of western blots was performed by densitometry using Image J software from the NIH.
Among the primary mechanisms for controlling GPCR effects on cAMP production is receptor desensitization (140). This process is initiated when ligand occupied GPCR (e.g., CXCR4) is phosphorylated by G protein receptor kinase (GRK). […]

For “CXCL12: chemokine ligand of CXCR4 (Peprotech)”, the “effect on cell number” value [1] was “no longer any benefit”, the “effect on cell number” value [2] was “no longer any benefit” and the “cyclic AMP levels after CXCL12” value [3] was “rapidly declined”. The “reduction in cAMP as compared to GPCs (area under the curve)” value [3] was 70%, the “effect on cell number” value [4] was “no effect” and the “increase in pCXCR4” value [5] was 2.6+/−0.06 fold.
